Laboratory results as given in patent publication US8927500B2, “Peptidomimetic macrocycles” (Aileron Therapeutics, Inc., priority 2012, dated 2015).
Read-outs that look alike come from different tables or passages of the source.

Experiments:
MDMX = biological target: T1, MDMX (Homo sapiens, UniProt O15151); assay: Competitive fluorescence polarization assay for MDMX; assay type: binding; conditions: competitive FP assay
T1 sequence (O15151 1-125): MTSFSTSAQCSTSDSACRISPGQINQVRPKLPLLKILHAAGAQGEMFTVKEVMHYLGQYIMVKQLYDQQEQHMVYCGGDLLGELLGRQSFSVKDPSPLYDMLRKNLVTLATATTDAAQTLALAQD

MDM2 = MDM2 (Homo sapiens, UniProt Q00987); assay: Competitive fluorescence polarization assay for MDM2; assay type: binding; conditions: competitive FP assay, MDM2
MDM2, sequence (Q00987 1-125): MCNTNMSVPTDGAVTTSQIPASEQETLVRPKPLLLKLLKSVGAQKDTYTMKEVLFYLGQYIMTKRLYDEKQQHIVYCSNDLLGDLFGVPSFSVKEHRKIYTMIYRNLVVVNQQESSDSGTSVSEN

IC50 (MDMX; read-out: IC50 (MDMX)) | Ki (MDMX; read-out: Ki (MDMX)) | IC50 (MDM2; read-out: IC50 (MDM2)) | Ki (MDM2; read-out: Ki (MDM2)) | Structure (SMILES) | IC50 (MDMX; IC50 (MDMX)) | Ki (MDMX; Ki (MDMX)) | IC50 (MDM2; IC50 (MDM2)) | Ki (MDM2; Ki (MDM2))
10 to 100 nM | 10 to 100 nM | 10 to 100 nM | < 10 nM | CCCC[C@H](NC(=O)[C@H](C)NC(=O)[C@H](C)NC(=O)[C@]1(C)CCCC=CCCCCCC[C@@](C)(NC(=O)[C@H](Cc2ccccc2)NC(=O)[C@@H](NC(=O)[C@H](CC(C)C)NC(C)=O)[C@@H](C)O)C(=O)N[C@@H](C)C(=O)N[C@@H](Cc2ccc(O)cc2)C(=O)N[C@@H](Cc2c[nH]c3ccccc23)C(=O)N[C@@H](C)C(=O)N[C@@H](CCC(N)=O)C(=O)N[C@@H](CC(C)C)C(=O)N1)C(=O)N[C@@H](C)C(=O)N[C@H](C)C(N)=O (single isomer, unassigned) [compound 408] | – | – | – | –
< 10 nM | < 10 nM | < 10 nM | < 10 nM | CCCC[C@H](NC(=O)[C@H](C)NC(=O)[C@H](C)NC(=O)[C@]1(C)CCCC=CCCCCCC[C@@](C)(NC(=O)[C@H](Cc2ccccc2)NC(=O)[C@@H](NC(=O)[C@H](CC(C)C)NC(C)=O)[C@@H](C)O)C(=O)N[C@@H](C)C(=O)N[C@@H](Cc2ccc(O)cc2)C(=O)N[C@@H](Cc2c[nH]c3ccccc23)C(=O)N[C@@H](C)C(=O)N[C@@H](CCC(N)=O)C(=O)N[C@@H](CC(C)C)C(=O)N1)C(=O)N[C@@H](C)C(=O)N(C)CC(N)=O (single isomer, unassigned) [compound 410] | – | – | – | –
< 10 nM | < 10 nM | < 10 nM | < 10 nM | CCCC[C@H](NC(=O)[C@H](C)NC(=O)[C@H](C)NC(=O)[C@]1(C)CCCC=CCCCCCC[C@@](C)(NC(=O)[C@H](Cc2ccccc2)NC(=O)[C@@H](NC(=O)[C@H](CC(C)C)NC(C)=O)[C@@H](C)O)C(=O)N[C@@H](C)C(=O)N[C@@H](Cc2ccc(O)cc2)C(=O)N[C@@H](Cc2c[nH]c3ccccc23)C(=O)N[C@@H](C)C(=O)N[C@@H](CCC(N)=O)C(=O)N[C@@H](CC(C)C)C(=O)N1)C(=O)N[C@@H](C)C(=O)O (single isomer, unassigned) [compound 421] | – | – | – | –
10 to 100 nM | 10 to 100 nM | 10 to 100 nM | < 10 nM | CCCC[C@H](NC(=O)[C@H](C)NC(=O)[C@H](C)NC(=O)[C@]1(C)CCCC=CCCCCCC[C@@](C)(NC(=O)[C@H](Cc2ccccc2)NC(=O)[C@@H](NC(=O)[C@H](CC(C)C)NC(C)=O)[C@@H](C)O)C(=O)N[C@@H](C)C(=O)N[C@@H](Cc2ccc(O)cc2)C(=O)N[C@@H](Cc2c[nH]c3ccccc23)C(=O)N[C@@H](C)C(=O)N[C@@H](CCC(N)=O)C(=O)N[C@@H](CC(C)C)C(=O)N1)C(=O)N[C@@H](C)C(=O)NCCC (single isomer, unassigned) [compound 423] | – | – | – | –
10 to 100 nM | 10 to 100 nM | 10 to 100 nM | 10 to 100 nM | CCCC[C@H](NC(=O)[C@H](C)NC(=O)[C@H](C)NC(=O)[C@]1(C)CCCC=CCCCCCC[C@@](C)(NC(=O)[C@H](Cc2ccccc2)NC(=O)[C@@H](NC(=O)[C@H](CC(C)C)NC(C)=O)[C@@H](C)O)C(=O)N[C@@H](C)C(=O)N[C@@H](Cc2ccc(O)cc2)C(=O)N[C@@H](Cc2c[nH]c3ccccc23)C(=O)N[C@@H](C)C(=O)N[C@@H](CCC(N)=O)C(=O)N[C@@H](CC(C)C)C(=O)N1)C(=O)N[C@@H](C)C(=O)NCCC(C)(C)C (single isomer, unassigned) [compound 425] | – | – | – | –
100 to 1000 nM | 10 to 100 nM | 100 to 1000 nM | 10 to 100 nM | CCCCCCNC(=O)[C@H](C)NC(=O)[C@H](CCCC)NC(=O)[C@H](C)NC(=O)[C@H](C)NC(=O)[C@]1(C)CCCC=CCCCCCC[C@@](C)(NC(=O)[C@H](Cc2ccccc2)NC(=O)[C@@H](NC(=O)[C@H](CC(C)C)NC(C)=O)[C@@H](C)O)C(=O)N[C@@H](C)C(=O)N[C@@H](Cc2ccc(O)cc2)C(=O)N[C@@H](Cc2c[nH]c3ccccc23)C(=O)N[C@@H](C)C(=O)N[C@@H](CCC(N)=O)C(=O)N[C@@H](CC(C)C)C(=O)N1 (single isomer, unassigned) [compound 427] | – | – | – | –
– | – | – | – | CC(C)C[C@H](NC(=O)CN(C)C)C(=O)N[C@H](C(=O)N[C@@H](Cc1ccccc1)C(=O)N[C@]1(C)CCCCCCC=CCCC[C@@](C)(C(=O)N[C@@H](C)C(=O)N[C@@H](C)C(=O)N[C@@H](C)C(=O)N[C@@H](C)C(=O)N[C@@H](C)C(=O)N[C@H](C)C(N)=O)NC(=O)[C@H](CC(C)C)NC(=O)[C@H](CCC(N)=O)NC(=O)[C@H](C)NC(=O)[C@H](Cc2c[nH]c3ccccc23)NC(=O)[C@H](Cc2ccc(O)cc2)NC(=O)[C@H](CCC(=O)O)NC1=O)[C@@H](C)O (single isomer, unassigned) [compound 439] | 10 to 100 nM | < 10 nM | < 10 nM | < 10 nM
< 10 nM | < 10 nM | < 10 nM | < 10 nM | CC[C@H](C)[C@H](NC(=O)[C@H](C)NC(=O)[C@H](C)NC(=O)[C@]1(C)CCCC=CCCCCCC[C@@](C)(NC(=O)[C@H](Cc2ccccc2)NC(=O)[C@@H](NC(=O)[C@H](CC(C)C)NC(=O)CN(C)C)[C@@H](C)O)C(=O)N[C@@H](CCC(=O)O)C(=O)N[C@@H](Cc2ccc(C(=O)O)cc2)C(=O)N[C@@H](Cc2c[nH]c3ccccc23)C(=O)N[C@@H](C)C(=O)N[C@@H](CCC(N)=O)C(=O)N[C@@H](CC2CCC2)C(=O)N1)C(=O)N[C@H](C)C(N)=O (single isomer, unassigned) [compound 441] | – | – | – | –
10 to 100 nM | 10 to 100 nM | 10 to 100 nM | < 10 nM | CCCC[C@H](NC(=O)[C@H](C)NC(=O)[C@H](C)NC(=O)[C@]1(C)CCCC=CCCCCCC[C@@](C)(NC(=O)[C@H](Cc2ccccc2)NC(=O)[C@@H](NC(=O)[C@H](CC(C)C)NC(=O)CN(C)C)[C@@H](C)O)C(=O)N[C@@H](C)C(=O)N[C@@H](Cc2ccc(O)cc2)C(=O)N[C@@H](Cc2c[nH]c3ccccc23)C(=O)N[C@@H](C)C(=O)N[C@@H](CCC(N)=O)C(=O)N[C@@H](CC(C)C)C(=O)N1)C(=O)N[C@@H](C)C(N)=O (single isomer, unassigned) [compound 443] | – | – | – | –
– | – | – | – | CC(=O)N[C@@H](CC(C)C)C(=O)N[C@H](C(=O)N[C@@H](Cc1ccccc1)C(=O)N[C@]1(C)CCCCCCC=CCCC[C@@](C)(C(=O)N[C@@H](C)C(=O)N[C@@H](C)C(=O)N[C@@H](C)C(=O)N[C@@H](C)C(=O)N[C@@H](C)C(=O)N[C@H](C)C(=O)O)NC(=O)[C@H](CC(C)C)NC(=O)[C@H](CCC(N)=O)NC(=O)[C@H](C)NC(=O)[C@H](Cc2c[nH]c3ccccc23)NC(=O)[C@H](Cc2ccc(O)cc2)NC(=O)[C@H](CCC(=O)O)NC1=O)[C@@H](C)O (single isomer, unassigned) [compound 551] | – | 10 to 100 nM | – | < 10 nM
– | 10 to 100 nM | – | 10 to 100 nM | CC(=O)N[C@@H](CC(C)C)C(=O)N[C@H](C(=O)N[C@@H](Cc1ccccc1)C(=O)N[C@]1(C)CCCCCCC=CCCC[C@@](C)(C(=O)N[C@@H](C)C(=O)N[C@@H](C)C(=O)N[C@@H](C)C(=O)N[C@@H](C)C(=O)N[C@@H](C)C(=O)N[C@H](C)C(N)=O)NC(=O)[C@H](CC(C)C)NC(=O)[C@H](C)NC(=O)[C@H](C)NC(=O)[C@H](Cc2c[nH]c3ccccc23)NC(=O)[C@H](Cc2ccc(O)cc2)NC(=O)[C@H](C)NC1=O)[C@@H](C)O (single isomer, unassigned) [compound 708] | – | – | – | –
– | 10 to 100 nM | – | 10 to 100 nM | CC(=O)N[C@@H](CC(C)C)C(=O)N[C@H](C(=O)N[C@@H](Cc1ccccc1)C(=O)N[C@]1(C)CCCCCCC=CCCC[C@@](C)(C(=O)N[C@@H](CO)C(N)=O)NC(=O)[C@H](CC(C)C)NC(=O)[C@H](CCC(N)=O)NC(=O)[C@H](C)NC(=O)[C@H](Cc2c[nH]c3ccccc23)NC(=O)[C@H](C)NC(=O)[C@H](Cc2c[nH]cn2)NC1=O)[C@@H](C)O (single isomer, unassigned) [compound 710] | – | – | – | –
– | 100 to 1000 nM | – | 10 to 100 nM | CC(=O)N[C@@H](CC(C)C)C(=O)N[C@H](C(=O)N[C@@H](Cc1ccccc1)C(=O)N[C@]1(C)CCCCCCC=CCCC[C@@](C)(C(=O)N[C@@H](CO)C(=O)N[C@@H](C)C(N)=O)NC(=O)[C@H](CC2CCC2)NC(=O)[C@H](CCC(N)=O)NC(=O)[C@H](C)NC(=O)[C@H](Cc2c[nH]c3ccccc23)NC(=O)[C@H](Cc2ccc(O)cc2)NC(=O)[C@H](CCC(=O)O)NC1=O)[C@@H](C)O (single isomer, unassigned) [compound 711] | – | – | – | –
– | < 10 nM | – | < 10 nM | CC(=O)N[C@@H](CC(C)C)C(=O)N[C@H](C(=O)N[C@@H](Cc1ccccc1)C(=O)N[C@]1(C)CCCCCCC=CCCC[C@@](C)(C(=O)N[C@@H](CO)C(=O)N[C@@H](C)C(=O)N[C@@H](C)C(N)=O)NC(=O)[C@H](CC2CCC2)NC(=O)[C@H](CCC(N)=O)NC(=O)[C@H](C)NC(=O)[C@H](Cc2c[nH]c3ccccc23)NC(=O)[C@H](Cc2ccc(O)cc2)NC(=O)[C@H](Cc2c[nH]cn2)NC1=O)[C@@H](C)O (single isomer, unassigned) [compound 712] | – | – | – | –
– | < 10 nM | – | < 10 nM | CC(=O)N[C@@H](CC(C)C)C(=O)N[C@H](C(=O)N[C@@H](Cc1ccccc1)C(=O)N[C@]1(C)CCCCCCC=CCCC[C@@](C)(C(=O)N[C@@H](CO)C(=O)N[C@@H](C)C(=O)N[C@@H](C)C(N)=O)NC(=O)[C@H](CC2CCC2)NC(=O)[C@H](CCC(N)=O)NC(=O)[C@H](C)NC(=O)[C@H](Cc2c[nH]c3ccccc23)NC(=O)[C@H](Cc2ccc(O)cc2)NC(=O)[C@H](CO)NC1=O)[C@@H](C)O (single isomer, unassigned) [compound 713] | – | – | – | –
– | < 10 nM | – | < 10 nM | CC(=O)N[C@@H](CC(C)C)C(=O)N[C@H](C(=O)N[C@@H](Cc1ccccc1)C(=O)N[C@]1(C)CCCCCCC=CCCC[C@@](C)(C(=O)N[C@@H](C)C(=O)N[C@@H](C)C(=O)N[C@@H](C)C(N)=O)NC(=O)[C@H](CC2CCC2)NC(=O)[C@H](CCC(N)=O)NC(=O)[C@H](C)NC(=O)[C@H](Cc2c[nH]c3ccccc23)NC(=O)[C@H](Cc2ccc(O)cc2)NC(=O)[C@H](CCC(=O)O)NC1=O)[C@@H](C)O (single isomer, unassigned) [compound 716] | – | – | – | –
